Values after ≈ are worked out from the molar mass of the structure shown. Like-named read-outs stand apart in the source and are kept apart here.

Data set [1] deals with L. (L.) major promastigotes. As to the kind of experiment: In vitro antileishmanial activity (CellTiter-Glo luminescent cell viability). The format is cell-based, Leishmania (L.) major. Also on record: key to Activity class against promastigotes based on IC50: very active (IC50 < 10 μg/mL); active (IC50 > 10 < 50 μg/mL); moderately active (IC50 > 50 < 100 μg/mL); inactive (IC50 > 100 μg/mL). The following applies: for IC50: Leishmania major; for Selectivity index (SI): SI = CC50 (L929)/IC50 (L. (L.) major promastigotes). The protocol:
Protozoan isolates were obtained from the Parasite Bank at the Department of Parasitology, Faculty of Medicine, Manisa Celal Bayar University. The subsequent procedure for acquiring promastigotes was as follows: the major L. (L.) isolate was classified as MHOM/TR/2014/CBL-LM. It was preserved in liquid nitrogen and defrosted by placing it in a water bath at 37 °C for two minutes after its removal from preservation. Subsequent to melting, the NNN medium was inoculated and incubated in an incubator at 25 °C. The reproductive condition of the protozoan was assessed by making coverslips and slides twice daily. Following parasite replication, the cells were transferred from the NNN medium to the RPMI-1640 medium (Gibco, Paisley, Scotland, UK) to facilitate further proliferation. Before application, 10% fetal calf serum, 1% penicillin/streptomycin, and 1% gentamicin were added to a widely available commercial medium. Distribution was conducted using 5 milliliters per 25 mL flask, and cultivation was performed by adding 50 μL of the cultured promastigotes. Flasks designated for cultivation were incubated in a 25 °C incubator. Parasite reproduction was observed, and the medium was supplemented every 2–3 days. Subsequently, the number of promastigotes was quantified using a Thoma chamber, yielding a concentration of 10^6 promastigotes/mL, and a suspension comprising promastigotes was formulated.
The synthesized compounds were dissolved in DMSO to a final concentration of no more than 0.5% [51]. Based on preliminary studies, the K1 compound was prepared at concentrations ranging from 0.23 µg/mL to 30 µg/mL, while the K2, K3, and K4 compounds were prepared at concentrations ranging from 1.95 µg/mL to 250 µg/mL.
The assay was conducted using 96-well flat-bottom microtiter plates, with three replicate wells per experimental group. The groups included a blank control, parasite control (no treatment), drug control (Amphotericin B), and test groups for compounds K1, K2, K3, and K4. Each well was filled with 100 µL of RPMI-1640 medium supplemented with 10% fetal calf serum, 1% penicillin/streptomycin, and 1% gentamicin. For the four test compounds and Amphotericin B, 100 µL of the respective solution was added to the first well of each group. The contents were mixed thoroughly using an automated dispensing pipette, followed by serial dilutions down the respective wells. Promastigote suspensions, previously counted using a Thoma counting chamber, were added at 100 µL per well to all wells except those designated as blanks. No parasites were added to the blank wells. The plates were then covered with lids, sealed with parafilm, and incubated at 25 °C. Following incubation, cell viability was assessed using the CellTiter-Glo® Luminescent Cell Viability Assay Kit (Promega, Madison, WI, USA). This experimental procedure was repeated in three independent experiments conducted at different time points.
It is calculated as the ratio of the cytotoxic concentration (CC50) required to cause 50% cell death in mammalian cells to the inhibitory concentration (IC50) required to kill 50% of the parasites. The selectivity index values of benzimidazole derivatives for L. (L.) major promastigotes were determined using the following equation: SI = CC50/IC50 [55].
For orientation: In ATP-based viability assays light output follows the ATP content of the culture.

Another data set is described as follows: Cytotoxicity test (MTT). Type of data set: cell-based, mouse. The note with it: L929 mouse fibroblast cells, 48 h, MTT. The protocol:
(§1) The cytotoxic effects of the benzimidazole derivatives and AmpB were determined using the L929 cell line (American Type Culture Collection, Manassas, VA, USA). In total, 100 µL of the cell suspension (10^5/mL) was added to each well comprising sterile, flat-bottomed 96-well microplates. The microplates were then incubated at 37 °C in a 5% CO2 incubator for 24 h. Cytotoxic activity was evaluated using the same concentrations applied in the antileishmanial activity assessment. For compound K1, serial dilutions were prepared in the range of 0.23–30 µg/mL, and for the other compounds, in the range of 1.95–250 µg/mL. These dilutions were added to a second microplate, and 100 µL from each well was transferred to the first plate. The plates were then incubated under the same conditions for an additional 48 h.
(§2) Cell viability was determined using the 3-(4.5-dimethylthiazol-2-yl)-2.5-diphenyltetrazolium bromide) (Sigma, Kawasaki, Japan) method. After the completion of the incubation period, all media from the microplates, both containing and lacking the active ingredient, were discarded. Subsequently, 100 μL of MTT suspension was added to each well, and the plates were incubated in a CO2 incubator at 37 °C for four hours. At the end of the incubation period, all wells in the microplates were emptied, and 100 μL of pure DMSO (to dissolve the formazan crystals) was pipetted into each well and incubated under the same conditions for 30 min. Absorbance was measured at 570 nm using a spectrophotometer (Biotek 800TS, Winooski, VT, USA). CC50 values were determined using GraphPad Prism version 8.4.2. All experiments were performed in triplicate, with three independent trials and two replicates per trial.

For the next data set, the system named is L929 cell line. Description: Cytotoxicity test (MTT). The note with it: L929 cells. The format is cell-based, mouse. As for the experimental part: as §1, §2
Data set [2] relates to L. (L.) major promastigotes. As to the kind of experiment: Morphological alterations of promastigotes by Giemsa staining. Type of data set: cell-based, Leishmania (L.) major. The note with it: serial dilutions 0.23 µg/mL to 30 µg/mL, 48 h. As for the experimental part:
The morphological alterations caused by compound K1 at various concentrations in L. (L.) major promastigotes were assessed at the 48 h mark utilizing Giemsa staining (Figure 3).
Figure 3 Control (a) and serial dilutions of the K1 compound (ranging from 0.23 µg/mL to 30 µg/mL) (b–l) in wells containing L. (L.) major promastigotes (100× magnification).

Setting [3] is: L. (L.) major promastigotes (MHOM/TR/2014/CBL-LM), 25 °C, CellTiter-Glo, read-out: IC50 (antileishmanial activity).

In general, IC50 refers to the midpoint of a concentration-inhibition curve. With `C[C@@H]1[C@H](O)[C@@H](C)/C=C/C=C/C=C/C=C/C=C/C=C/C=C/[C@H](O[C@@H]2O[C@H](C)[C@@H](O)[C@H](N)[C@@H]2O)C[C@@H]2O[C@](O)(C[C@@H](O)C[C@@H](O)[C@H](O)CC[C@@H](O)C[C@@H](O)CC(=O)O[C@H]1C)C[C@H](O)[C@H]2C(=O)O` [AmpB, Amphotericin B, reference compound], in data set [1] (setting [3]), the half-inhibitory concentration (IC50) stood at 0.274 µg/mL (≈ 0.297 µM).

Broadly, the CC50 is the concentration that lowers cell viability or growth by half. In “Cytotoxicity test (MTT)”, `Cc1nc(-c2ccc(Cl)cc2)cn2c1nc1ccccc12` [K4] had a half-maximal cytotoxic concentration (CC50) at 48 h of 292 µg/mL (≈ 994 µM). Moreover, the IC50 in data set [1] (setting [3]) was 69.2 µg/mL (≈ 236 µM); in data set [1] (L. (L.) major promastigotes, read-out: Activity class against promastigotes based on IC50), 50 to 100 µg/mL (≈ 170 to 340 µM). The “Selectivity index (SI)” value in data set [1] was determined as 4.22.

`CC(=O)c1nc2ccccc2n1CC(=O)c1cccc(Cl)c1` [K1] showed a CC50 at 48 h in the data set “Cytotoxicity test (MTT)” of 250 µg/mL (≈ 799 µM). For the same molecule, the “Cytotoxic effect on L929 cells” value in the data set with L929 cell line is listed as “not observed”. In data set [2], the “Morphological alterations in promastigotes” value is “decreases in the number of promastigotes and morphological structural disruptions were observed”. The IC50 in data set [1] (setting [3]) stood at 0.679 µg/mL (≈ 2.17 µM). In addition, the “Selectivity index (SI)” value in data set [1] stood at 368.25.

As to `Cc1nc(-c2ccccc2)cn2c1nc1ccccc12` [K3], the midpoint of cytotoxicity in the data set “Cytotoxicity test (MTT)”, the CC50 at 48 h, lay at 0.56 µg/mL (≈ 2.16 µM). For the same molecule, the “Activity class against promastigotes based on IC50” value in data set [1] (L. (L.) major promastigotes) was “active”. Besides, the half-maximal inhibitory concentration (IC50) in data set [1] (setting [3]) was found to be 45.1 µg/mL (≈ 174 µM). Also, the “Selectivity index (SI)” value in data set [1] amounted to 0.012.

As for `Cc1nc(-c2cccc(Cl)c2)cn2c1nc1ccccc12` [K2], the 50% cytotoxic concentration (CC50) at 48 h in the data set “Cytotoxicity test (MTT)” was 63 µg/mL (≈ 214 µM). For the same molecule, in data set [1] (setting [3]), the IC50 was determined as 8.89 µg/mL (≈ 30.3 µM). Besides, in data set [1], the “Selectivity index (SI)” value is listed as 7.08.

Source of the values: paper PMC12197429, “Evaluation of the Antileishmanial Activity of Some Benzimidazole Derivatives Using In Vitro and In Silico Techniques” (Veterinary Sciences, 2025).
